Experimental data from PubChem BioAssay (NCI).
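Five compound concentrations were applied to cells in 96-well plates for 48 hours; endpoints were derived by simple linear interpolation of the resulting dose-response curve. TGI denotes the concentration required for complete inhibition of growth.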

Experiments:
Assay in all cases: NCI tumour cell line growth inhibition, 48 h
[1] = test system: SNB-75 CNS
[2] = test system: MDA-MB-435
[3] = test system: ACHN renal
[4] = test system: T-47D breast
[5] = test system: RXF 393 renal
[6] = test system: MOLT-4 leukemia
[7] = test system: HT29 colon
[8] = test system: SN12C renal
[9] = test system: HCT-15 colon
[10] = test system: SW-620 colon
[11] = test system: RPMI-8226 leukemia
[12] = test system: HCC-2998 colon
[13] = test system: SK-MEL-28 melanoma
[14] = test system: NCI-H226 lung
[15] = test system: CCRF-CEM leukemia
[16] = test system: SK-OV-3 ovarian
[17] = test system: HS 578T breast
[18] = test system: LOX IMVI melanoma
[19] = test system: SR leukemia
[20] = test system: NCI-H460 lung
[21] = test system: NCI-H23 lung
[22] = test system: HOP-62 NSCLC
[23] = test system: MDA-MB-231 breast
[24] = test system: CAKI-1 renal
[25] = test system: TK-10 renal
[26] = test system: A498 renal
[27] = test system: COLO 205 colon
[28] = test system: MCF7 breast
[29] = test system: 786-0 renal
[30] = test system: KM12 colon
[31] = test system: MALME-3M melanoma
[32] = test system: U251 CNS
[33] = test system: DU-145 prostate
[34] = test system: MDA-N
[35] = test system: OVCAR-3 ovarian
[36] = test system: HCT-116 colon
[37] = test system: HL-60(TB) leukemia
[38] = test system: UACC-62 melanoma
[39] = test system: OVCAR-4 ovarian
[40] = test system: OVCAR-8 ovarian
[41] = test system: SF-268 CNS
[42] = test system: K-562 leukemia
[43] = test system: EKVX NSCLC
[44] = test system: BT-549 breast
[45] = test system: NCI-H522 lung
[46] = test system: UO-31 renal
[47] = test system: SK-MEL-2 melanoma
[48] = test system: SNB-19 CNS
[49] = test system: NCI/ADR-RES ovarian
[50] = test system: SK-MEL-5 melanoma
[51] = test system: SF-539 CNS
[52] = test system: PC-3 prostate
[53] = test system: IGROV1 ovarian
[54] = test system: OVCAR-5 ovarian
[55] = test system: A549 NSCLC
[56] = test system: SF-295 CNS
[57] = test system: HOP-92 NSCLC
[58] = test system: UACC-257 melanoma
[59] = test system: M14 melanoma

[Se]=P(c1ccccc1)(c1ccccc1)c1ccc(C(c2ccccc2)=P(c2ccccc2)(c2ccccc2)c2ccccc2)cc1
TGI [1]: 3.49 µM | TGI [2]: 3.46 µM | TGI [3]: 8.06 µM | TGI [4]: 7.07 µM | TGI [5]: 10.9 µM | TGI [6]: 12.6 µM | TGI [7]: 2.17 µM | TGI [8]: 10.2 µM | TGI [9]: 18.8 µM | TGI [10]: 19.2 µM | TGI [11]: 8.05 µM | TGI [12]: 11.6 µM | TGI [13]: 20.2 µM | TGI [14]: 11.5 µM | TGI [15]: 8.37 µM | TGI [16]: 12.1 µM | TGI [17]: 5.24 µM | TGI [18]: 2.48 µM | TGI [19]: > 33.3 µM | TGI [20]: 10.9 µM | TGI [21]: 13.9 µM | TGI [22]: 4.33 µM | TGI [23]: 7.33 µM | TGI [24]: 8.5 µM | TGI [25]: 6.88 µM | TGI [26]: 9.4 µM | TGI [27]: 0.659 µM | TGI [28]: 2.93 µM | TGI [29]: 10.8 µM | TGI [30]: 1.8 µM | TGI [31]: 2.51 µM | TGI [32]: 5.25 µM | TGI [33]: 14.5 µM | TGI [34]: 4.57 µM | TGI [35]: 4.22 µM | TGI [36]: 4.7 µM | TGI [37]: 1.06 µM | TGI [38]: 3.85 µM | TGI [39]: > 33.1 µM | TGI [40]: 8.02 µM | TGI [41]: 9.26 µM | TGI [42]: 3.33 µM | TGI [43]: 15.8 µM | TGI [44]: 6.56 µM | TGI [45]: 1.7 µM | TGI [46]: 20.1 µM | TGI [47]: 6.21 µM | TGI [48]: 16 µM | TGI [49]: > 54.1 µM | TGI [50]: 1.64 µM | TGI [51]: 17.8 µM | TGI [52]: 9.34 µM | TGI [53]: 11.5 µM | TGI [54]: 18.7 µM | TGI [55]: 13 µM | TGI [56]: 10.2 µM | TGI [57]: 1.91 µM | TGI [58]: 5.59 µM | TGI [59]: 24.5 µM

O=C1C(F)=CC(COC(c2ccccc2)(c2ccccc2)c2ccccc2)OC1n1cc(F)c(=O)[nH]c1=O (stereo not drawn)
TGI [1]: 10.9 µM | TGI [2]: 3.18 µM | TGI [3]: 3.08 µM | TGI [4]: > 28.6 µM | TGI [5]: 4.11 µM | TGI [6]: 4.81 µM | TGI [7]: 1.59 µM | TGI [8]: 4.29 µM | TGI [9]: 5.95 µM | TGI [10]: 4.26 µM | TGI [11]: 1.31 µM | TGI [12]: 14.1 µM | TGI [13]: 3.5 µM | TGI [14]: 5.51 µM | TGI [15]: > 32 µM | TGI [16]: 14.4 µM | TGI [17]: > 45 µM | TGI [18]: 3.54 µM | TGI [19]: > 100 µM | TGI [20]: 7.68 µM | TGI [21]: 3.91 µM | TGI [22]: 11.6 µM | TGI [23]: 18.5 µM | TGI [24]: 9.09 µM | TGI [25]: 3.43 µM | TGI [26]: 24.4 µM | TGI [27]: > 21.5 µM | TGI [28]: 4.96 µM | TGI [29]: 3.92 µM | TGI [30]: 7.72 µM | TGI [31]: 31.4 µM | TGI [32]: 4.71 µM | TGI [33]: > 34.2 µM | TGI [34]: 3.38 µM | TGI [35]: 3.21 µM | TGI [36]: 10.9 µM | TGI [37]: 10.2 µM | TGI [38]: 3.62 µM | TGI [39]: 14.4 µM | TGI [40]: 7 µM | TGI [41]: 12.6 µM | TGI [42]: > 100 µM | TGI [43]: > 24.4 µM | TGI [44]: 4.38 µM | TGI [45]: 3.1 µM | TGI [46]: 5.61 µM | TGI [47]: 7.49 µM | TGI [48]: 12.8 µM | TGI [49]: 8.31 µM | TGI [50]: 3.22 µM | TGI [51]: 3.75 µM | TGI [52]: 4.69 µM | TGI [53]: 6.79 µM | TGI [54]: 4.61 µM | TGI [55]: 6.12 µM | TGI [56]: 5.06 µM | TGI [57]: 5.52 µM | TGI [58]: 4.72 µM | TGI [59]: 5.03 µM
